Measured values: US20060246163A1, “TREATMENT OF INSULIN RESISTANCE SYNDROME” (TG BIOTECH, priority 2005, published 2006)

How the values were obtained:
Format in all cases: cell-based
L6 myotube cells = test: 2-deoxyglucose uptake in L6 myotube cells; settings: high glucose; GP 60 μg/mL 2 hs, AICAR 1 mM 1 h, insulin 100 nM 20 min
Method: Examples 1-5 indicate that GP would increase glucose uptake regardless of the presence of insulin. To measure the glucose uptake in vitro, we performed 2-deoxyglucose uptake experiment. Since 2-deoxyglucose is not metabolized inside cells, radiolabeled 2-deoxyglucose was used for measuring glucose uptake experiment. Whether GP increases glucose uptake in L6 myotube cells was investigated. Prior to adding the materials, the cells were incubated in the presence of high glucose, since high glucose is known to obstruct glucose uptake in muscle […] (60 μg/mL), AICAR (1 mM) and insulin (100 nM) were incubated for 2 hs, 1 h and 20 min, respectively. Immediately after washing in Hepes buffered saline (HBS), the cells were incubated with 2-deoxyglucose (10 μM) in HBS for 10 min. Extensive washing was preceded before measuring radioactivity in scintillation counter. The uptake unit was estimated by the total counts of incubation.

AKT = AKT phosphorylation/activity in L6 cells; settings: GP 30, 60, 100 μg/mL; AICAR 1 mM; insulin 100 nM
Method: (§1) 1) control; 2) GP 30 μg/mL; 3) GP 60 μg/mL; 4) GP 100 μg/mL; 5) AICAR 1 mM; 6) insulin 100 nM.
AKT (also called protein kinase B, PKB) phosphorylation is catalyzed by PI3K in insulin signal pathway. Whether GP treatment on the muscle cells affects AKT activity was tested.

ACC = ACC Ser79 phosphorylation in L6 myotube cells; settings: GP 30, 60, 100 μg/mL; AICAR 1 mM; insulin 100 nM
Method: as §1
L6 myotube cells were treated with GP and AICAR.

p38 MAPK = p38 MAPK activation in L6 cells; settings: GP 30, 60 μg/mL; AICAR 1 mM
Method: (§2) The kinase activities were evaluated with specific antibodies. 1) control; 2) GP 30 μg/mL; 3) GP 60 μg/mL; 4) AICAR 1 mM.
(§3) L6 cells were differentiated into mature muscle cells in a low serum condition (2%, v/v). AICAR was used as an internal positive control. Once drug treatments were completed, cells were harvested, subjected to be lysated, and equal amount of proteins from each treatment was loaded on gels for analyzing AMPK and p38 MAPK activity levels (FIG. 7). Total AMPK protein was also immunoblotted to make sure that equal amount of protein was loaded on the gels.
We investigated whether GP is able to activate p38 MAPK in L6 cells.

IKKβ = IKKβ phosphorylation/activity in L6 myotube cells in the presence of tunicamycin; settings: GP 30, 60 μg/mL, AICAR 1 mM, insulin 100 nM
Method: The cytosolic fraction was subjected on SDS-PAGE and blotted on nitrocellulose membrane. The membrane was incubated with anti-phospho-IKKβ (S^177/181), anti-phospho IRS1 (S^307), and anti-phospho SAPK/JNK (T^183) antibodies. 1) control cells with no treatment; 2) L6 cells treated with tunicamycin; 3) cells treated with 30 μg/mL GP in the presence of tunicamycin; 4) cells treated with 60 μg/mL GP in the presence of tunicamycin; 5) cells treated with 1 mM AICAR in the presence of tunicamycin; 6) cells incubated with 100 nM insulin in the presence of tunicamycin; 7) cells incubated with 100 nM insulin in the absence of tunicamycin.
The effect of GP on the phosphorylation of IKKβ in L6 myotube cells in the presence of tunicamycin was evaluated. The cytosolic fraction was subjected to SDS-PAGE and blotted on nitrocellulose membrane. The cytosolic fraction was subjected to SDS-PAGE and blotted on nitrocellulose membrane. The membrane was incubated with anti-phospho-IKKβ (S^177/181), anti-phospho IRS1 (S^307), and anti-phospho SAPK/JNK (T^183) antibodies.

JNK = JNK activity in L6 myotube cells, phospho JNK immunoblot; settings: 2 hs; GP 30, 60 μg/mL; AICAR 1 mM; insulin 100 nM
Method: L6 myotube cells were treated with GP for 2 hs. Cytosolic fraction was immunoblotted against phospho JNK antibodies. 1) control cells with no treatment; 2) GP 30 μg/ mL; 3) GP 60 μg/ mL; 4) AICAR 1 mM; 5) insulin 100 nM. We also investigated effects of GP treatment on JNK activity in L6 myotube cells.

AMPK = AMPK phosphorylation (threonine 172) in L6 myotube cells, immunoblot; settings: 1 mM, high glucose
Method: L6 myotube cells were treated with 60 μg/mL of GP and incubated for the period of time indicated. Cells were lysed in lysis buffer and cytosolic proteins were resolved by SDS-PAGE, protein bands were transferred onto a nitrocellulose membrane, and phospho-AMPK was analyzed with specific antibodies. 1) control cells with no treatment; 2) cells treated with GP for 30 min; 3) cells treated with GP for 1 h; 3) cells with treated with GP for 2 hs.
as §2
We treated GP on L6 myotube cells to determine whether the treatment activates AMPK activity. Activation of AMPK was estimated by the increase in the phosphorylation on the threonine^172 residue of AMPK using specific antibodies. […] Cells were pretreated with high glucose (27.5 mM) to induce insulin resistance and to repress AMPK activation (Itani, 2003).
as §3

Compound	Increase of 2-deoxyglucose uptake, on average (L6 myotube cells)	AKT activity (phosphorylation) (AKT)	Phosphorylation of Ser79 of ACC (ACC)	p38 MAPK activation (p38 MAPK)	Serine phosphorylation / activity of IKKβ (IKKβ)	JNK activity (JNK)	Phosphorylation level of AMPK (AMPK)
NC(=O)c1ncn([C@@H]2O[C@H](COP(=O)(O)O)[C@@H](O)[C@H]2O)c1N [AICAR, 5′-phosphoribosyl-5-aminoimidazole-4-carboxamide]	42%	Neither GP nor AICAR appeared to affect AKT activity	increased the phosphorylation of ACC but slightly less than that observed with 30 μg/mL of GP	exhibited p38 activation	slightly reduced	not affected	comparable to that of 60 μg/mL of GP
insulin: hormone used as positive marker/control for GLUT4 translocation and AKT activation	40%	activated AKT activity considerably	did not affect the phosphorylation		slightly reduced	not affected	
